Measured values taken from PubChem BioAssay AID192 (DTP/NCI, 2004).
Toxic doses and inconclusive results are not listed. Peptide text beside a SMILES is read from it.

Tested on: BDF1 mice, B16 melanoma ip, median survival T/C
Assay: NCI In Vivo Anticancer Drug Screen. Data for tumor model B16 Melanoma (intraperitoneal) in B6D2F1 (BDF1) mice
Conditions: endpoint: median survival time, higher = longer survival
Procedure, shortened: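 Values are ratios of treated (T) to vehicle-control (C) measurements of survival or tumor size in tumor-bearing mice.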

[1] = dose: 6.25 mg/kg/injection, schedule: Q01DX009 (ip), vehicle: saline
[2] = dose: 12.5 mg/kg/injection, schedule: Q01DX009 (ip), vehicle: saline
[3] = dose: 25.0 mg/kg/injection, schedule: Q01DX009 (ip), vehicle: saline
[4] = dose: 50.0 mg/kg/injection, schedule: Q01DX009 (ip), vehicle: saline
[5] = dose: 100.0 mg/kg/injection, schedule: Q01DX009 (ip), vehicle: Klucel (hydroxypropylcellulose) (HPC)
[6] = dose: 200.0 mg/kg/injection, schedule: Q01DX009 (ip), vehicle: Klucel (hydroxypropylcellulose) (HPC)
[7] = dose: 100.0 mg/kg/injection, schedule: Q01DX009 (ip), vehicle: saline
[8] = dose: 400.0 mg/kg/injection, schedule: Q01DX009 (ip), vehicle: Klucel (hydroxypropylcellulose) (HPC)
[9] = dose: 100.0 mg/kg/injection, schedule: Q01DX009 (ip), vehicle: saline with Tween-80
[10] = dose: 200.0 mg/kg/injection, schedule: Q01DX009 (ip), vehicle: saline with Tween-80
[11] = dose: 400.0 mg/kg/injection, schedule: Q01DX009 (ip), vehicle: saline with Tween-80

Structure (SMILES): CNCCOC(c1ccccc1)c1ccccc1C (stereo not drawn)
- T/C (dose: 3.12 mg/kg/injection, schedule: Q01DX009 (ip), vehicle: saline): 97 % of control
- T/C [1]: 97 % of control
- T/C [2]: 102 % of control
- T/C [3]: 100 % of control
- T/C [4]: 104 % of control

Structure (SMILES): CC(=O)OC1c2ccccc2C(=O)C1(OC(C)=O)c1ccccc1 (stereo not drawn)
- T/C (dose: 50.0 mg/kg/injection, schedule: Q01DX009 (ip), vehicle: Klucel (hydroxypropylcellulose) (HPC)): 102 % of control
- T/C [5]: 94 % of control
- T/C [6]: 102 % of control

Structure (SMILES): NC(=O)N1OCC(N)C1=O (stereo not drawn)
- T/C [4]: 95 % of control
- T/C [7]: 103 % of control
- T/C (dose: 200.0 mg/kg/injection, schedule: Q01DX009 (ip), vehicle: saline): 95 % of control

Structure (SMILES): CC1c2cccc(Cl)c2C(=O)c2c(Cl)cccc21
- T/C [5]: 102 % of control
- T/C [6]: 100 % of control
- T/C [8]: 102 % of control

Structure (SMILES): [N-]=C(CC(=O)c1ccccc1)c1ccccc1.[N-]=C(CC(=O)c1ccccc1)c1ccccc1.[Ni+2]
- T/C (dose: 3.0 mg/kg/injection, schedule: Q04DX003 (ip), vehicle: Klucel (hydroxypropylcellulose) (HPC)): 86 % of control
- T/C (dose: 6.0 mg/kg/injection, schedule: Q04DX003 (ip), vehicle: Klucel (hydroxypropylcellulose) (HPC)): 93 % of control
- T/C (dose: 12.0 mg/kg/injection, schedule: Q04DX003 (ip), vehicle: Klucel (hydroxypropylcellulose) (HPC)): 88 % of control

Structure (SMILES): CC(C)COC(=O)c1ccc(NC(=O)Nc2ccccc2)cc1
- T/C [9]: 93 % of control
- T/C [10]: 102 % of control
- T/C [11]: 97 % of control

Structure (SMILES): Cc1ccc(Cl)cc1NC(=O)COc1ccc(Cl)cc1
- T/C (dose: 25.0 mg/kg/injection, schedule: Q01DX009 (ip), vehicle: saline with Tween-80): 92 % of control
- T/C (dose: 50.0 mg/kg/injection, schedule: Q01DX009 (ip), vehicle: saline with Tween-80): 91 % of control
- T/C [9]: 88 % of control

Structure (SMILES): CC(C)C(NC(=O)C(NC(=O)C(CCCN=C(N)N)NC(=O)C(N)CCCCN)C(C)C)C(N)=O (stereo not drawn) (H-KRVV-NH2; configuration not given here)
- T/C (dose: 25.0 mg/kg/injection, schedule: Q01DX009 (ip), vehicle: water): 97 % of control
- T/C (dose: 50.0 mg/kg/injection, schedule: Q01DX009 (ip), vehicle: water): 96 % of control
- T/C (dose: 100.0 mg/kg/injection, schedule: Q01DX009 (ip), vehicle: water): 96 % of control
- T/C (dose: 200.0 mg/kg/injection, schedule: Q01DX009 (ip), vehicle: water): 99 % of control

Structure (SMILES): CC1(C)C(=O)NC(=O)C1(C)C
- T/C [1]: 92 % of control
- T/C [2]: 96 % of control
- T/C [3]: 95 % of control
- T/C [4]: 90 % of control

Structure (SMILES): Clc1ccc(C=Nc2ccc3c(c2)Cc2ccccc2-3)cc1
- T/C [5]: 93 % of control
- T/C [6]: 93 % of control
- T/C [8]: 96 % of control

Structure (SMILES): CCN1CC(CCN2CCOCC2)C(c2ccccc2)(c2ccccc2)C1=O (stereo not drawn)
- T/C [1]: 91 % of control
- T/C [2]: 104 % of control
- T/C [3]: 100 % of control
- T/C [4]: 102 % of control
- T/C [7]: 100 % of control

Structure (SMILES): COc1ccc(NC(=O)Nc2ccc(Cl)cc2C)cc1
- T/C (dose: 100.0 mg/kg/injection, schedule: Q01DX009 (sc), vehicle: olive oil, sesame oil, peanut oil): 101 % of control
- T/C (dose: 200.0 mg/kg/injection, schedule: Q01DX009 (sc), vehicle: olive oil, sesame oil, peanut oil): 111 % of control
- T/C (dose: 400.0 mg/kg/injection, schedule: Q01DX009 (sc), vehicle: olive oil, sesame oil, peanut oil): 103 % of control

Structure (SMILES): O=C1N(CC2CO2)CCN1CC1CO1 (stereo not drawn)
- T/C (dose: 12.5 mg/kg/injection, schedule: Q01DX009 (ip), vehicle: suspension in saline): 106 % of control
- T/C (dose: 25.0 mg/kg/injection, schedule: Q01DX009 (ip), vehicle: suspension in saline): 124 % of control
- T/C (dose: 100.0 mg/kg/injection, schedule: Q01DX009 (ip), vehicle: suspension in saline): 193 % of control

Structure (SMILES): CCc1cc(C)cc(OC(=O)Nc2ccc(Cl)cc2)c1
- T/C [9]: 116 % of control
- T/C [10]: 87 % of control
- T/C [11]: 92 % of control
